Source: patent US20180117053A1, “The Method of Use for Inhibitors of Epidermal Growth Factor Receptor Variants II, III and VI” (Metastat, Inc., priority 2015, published 2018)

How the values were obtained:
EGFR-viii = biological target: T1, EGFR-viii (Homo sapiens, UniProt P00533, DELINS30-297G); assay: PhosphoY1173-EGFR-viii in-cell ELISA in U87MG tumor cells engineered to express EGFR-viii; type: cell-based; conditions: U87MG tumor cells expressing EGFR-viii; for activity against EGFR-viii: in words
T1 construct: expressed in transfected cells; host or cells: U87MG (ATCC), lentiviral infection, puromycin selection
Experimental: Data are expressed as EC50 and were determined using an in-cell ELISA kit (Pierce).

[1] = system: tumors expressing EGFR-viii; conditions: clinical studies (Vivanco 2012, Reardon 2014); cited from earlier work

| Structure (SMILES) | activity against EGFR-viii (EGFR-viii; in-cell ELISA) | other results |
| --- | --- | --- |
| C=CC(=O)Nc1ccc2ncnc(Nc3ccc(OCc4cccc(F)c4)c(Cl)c3)c2c1 [AST-1306] |  | potency against EGFR-viii relative to WZ4002, WZ8040, WZ3146, CO-1686 and AZD9291 (EGFR-viii): at least ten-fold more potent; EC50 (EGFR-viii; in-cell ELISA, read-out: EC50 against EGFR-viii (phosphoY1173-EGFRviii)): < 50 nM |
| CS(=O)(=O)CCNCc1ccc(-c2ccc3ncnc(Nc4ccc(OCc5cccc(F)c5)c(Cl)c4)c3c2)o1 [Lapatinib, lapatinib] |  | cancer growth inhibition in clinical studies [1]: insignificant cancer growth inhibition |
| C=CC(=O)Nc1cccc(Oc2nc(Nc3ccc(N4CCN(C)CC4)cc3)ncc2Cl)c1 [WZ3146] | weak activity |  |

Now from value to compound, other results behind:

| activity against EGFR-viii (EGFR-viii; in-cell ELISA) | Structure (SMILES) | other results |
| --- | --- | --- |
| weak activity | C=CC(=O)Nc1cccc(Nc2nc(Nc3ccc(N4CCN(C(C)=O)CC4)cc3OC)ncc2C(F)(F)F)c1 [CO-1686] |  |
| weak activity | C=CC(=O)Nc1cccc(Sc2nc(Nc3ccc(N4CCN(C)CC4)cc3)ncc2Cl)c1 [WZ8040] |  |
